We go through 42 substances from patent US20120178765A1, “NOVEL GLUCOKINASE ACTIVATORS AND PROCESSES FOR THE PREPARATION THEREOF” (YUHAN CORPORATION, priority 2009, published 2012).

This test concerns the target T1, Glucokinase (Homo sapiens, UniProt P35557).
T1 construct: purchased ProteinOne Inc
T1 sequence (P35557 1-465): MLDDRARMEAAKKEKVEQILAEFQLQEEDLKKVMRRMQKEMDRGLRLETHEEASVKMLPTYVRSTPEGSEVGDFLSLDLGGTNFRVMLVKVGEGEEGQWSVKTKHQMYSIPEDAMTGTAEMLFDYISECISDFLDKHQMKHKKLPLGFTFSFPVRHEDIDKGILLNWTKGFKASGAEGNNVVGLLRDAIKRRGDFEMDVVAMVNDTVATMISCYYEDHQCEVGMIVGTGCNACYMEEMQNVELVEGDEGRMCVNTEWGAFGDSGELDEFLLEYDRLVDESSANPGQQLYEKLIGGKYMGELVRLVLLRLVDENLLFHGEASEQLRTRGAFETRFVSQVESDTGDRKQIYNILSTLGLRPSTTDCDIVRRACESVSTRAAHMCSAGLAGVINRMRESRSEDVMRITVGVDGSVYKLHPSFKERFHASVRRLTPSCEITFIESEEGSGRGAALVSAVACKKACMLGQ
Put plainly: Glucokinase activation assay (NADPH absorbance at 340 nm). Format: biochemical. The note with it: glucokinase (ProteinOne Inc.), 5 mM D(+)-glucose, 24° C., 90 minutes. On the procedure:
The amounts of glucokinase activation were determined by measuring the levels of NADPH (the final metabolite of glucose through glucokinase-mediated phospho-rylation) and then calculating to glucokinase activities.
Glucokinase (ProteinOne Inc.) was added, in the concentration of 100 ng/uL, to a enzyme-reaction medium (25 mM HEPES pH 7, 25 mM KCL, 1 mM MgCl, 5 mM D(+)-glucose, 1 mM ATP, 1 mM NADP, 1 mM DTT, and 2.5 u/mL G6PDH). Each compound in predetermined concentrations was added to the enzyme-reaction medium and then absorbance (First Absorbance) was measured at 340 nm of wavelength. After measuring the first absorbance, each reaction mixture was incubated at 24° C. for 90 minutes and then absorbance (Second Absorbance) was re-measured at 340 nm of wavelength. Using changes between First Absorbance and Second Absorbance, glucokinase activity was calculated. In the calculation, a maximum activity of the test compound (Emax), in comparison to the control group (no treatment of compound) was determined and then EC50 was calculated using the software for statistical analysis “Prism”, based on the activity-changes according to concentrations of the test compounds.
The amounts of glucokinase activation of the compounds of Comparative Examples 1 and 2 were determined, in accordance with the same procedures as in Test Example 1.

Substance “3-[2-(2,3-difluorophenyl)ethyl]-5-(2-methoxy-(1S)-methyl-ethoxy)-N-(1-methyl-1H-pyrazol-3-yl)-benzamide [Example 95]” showed an EC50 of 418 nM.
The figure for “3-[2-(2,3-dimethoxyphenyl)ethyl]-5-(2-methoxy-(1S)-methyl-ethoxy)-N-(1-methyl-1H-pyrazol-3-yl)-benzamide [Example 103]” is 448 nM.
Substance “3-[2-(2,3-dimethoxyphenyl)ethyl]-5-(2-methoxy-(1S)-methyl-ethoxy)-N-(thiazol-2-yl)-benzamide [Example 90]” showed an EC50 of 322 nM.
The figure for “3-[2-(2,4-difluorophenyl)ethyl]-5-(2-methoxy-(1S)-methyl-ethoxy)-N-(1-methyl-1H-pyrazol-3-yl)-benzamide [Example 96]” is 184 nM; for “3-[2-(2,4-difluorophenyl)ethyl]-5-(2-methoxy-(1S)-methyl-ethoxy)-N-(thiazol-2-yl)-benzamide [Example 85]” it is 9.5 nM.
The figure for “3-[2-(2,4-dimethoxyphenyl)ethyl]-5-(2-methoxy-(1S)-methyl-ethoxy)-N-(1-methyl-1H-pyrazol-3-yl)-benzamide [Example 104]” is 223 nM.
Under “3-[2-(2,4-dimethoxyphenyl)ethyl]-5-(2-methoxy-(1S)-methyl-ethoxy)-N-(pyrazin-2-yl)-benzamide [Example 105]” stands 298 nM; under “3-[2-(2,5-difluorophenyl)ethyl]-5-(2-methoxy-(1S)-methyl-ethoxy)-N-(thiazol-2-yl)-benzamide [Example 86]”, 36.6 nM; under “3-[2-(2,6-difluorophenyl)ethyl]-5-(2-methoxy-(1S)-methyl-ethoxy)-N-(thiazol-2-yl)-benzamide [Example 87]”, 34.4 nM.
Substance “3-[2-(2-acetylaminophenyl)ethyl]-5-(2-methoxy-(1S)-methyl-ethoxy)-N-(thiazol-2-yl)benzamide [Example 116]” showed an EC50 of 318 nM.
For “3-[2-(2-aminophenyl)ethyl]-5-(2-methoxy-(1S)-methyl-ethoxy)-N-(thiazol-2-yl)-benzamide [Example 88]”, the EC50 was 108 nM.
Under “3-[2-(2-benzenesulfonylaminophenyl)ethyl]-5-(2-methoxy-(1S)-methyl-ethoxy)-N-(thiazol-2-yl)-benzamide [Example 115]” stands 210 nM; under “3-[2-(2-chlorophenyl)ethyl]-5-(2-methoxy-(1S)-methyl-ethoxy)-N-(1-methyl-1H-pyrazol-3-yl)-benzamide [Example 101]”, 85.6 nM; under “3-[2-(2-fluorophenyl)ethyl]-5-(2-methoxy-(1S)-methyl-ethoxy)-N-(pyrazin-2-yl)-benz amide [Example 107]”, 333 nM.
The figure for “3-[2-(2-fluorophenyl)ethyl]-5-(2-methoxy-(1S)-methyl-ethoxy)-N-(thiazol-2-yl)-benzamide [Example 84]” is 41.6 nM; for “3-[2-(2-methanesulfonylaminophenyl)ethyl]-5-(2-methoxy-(1S)-methyl-ethoxy)-N-(thiazol-2-yl)-benzamide [Example 113]” it is 72.1 nM.
The figure for “3-[2-(2-methoxyphenyl)ethyl]-5-(2-methoxy-(1S)-methyl-ethoxy)-N-(pyrazin-2-yl)-benzamide [Example 106]” is 304 nM.
The substance “3-[2-(2-methoxyphenyl)ethyl]-5-(2-methoxy-(1S)-methyl-ethoxy)-N-(thiazol-2-yl)-benzamide [Example 89]” showed an EC50 of 28.4 nM.
Consider “3-[2-(3,5-dimethoxyphenyl)ethyl]-5-(2-methoxy-(1S)-methyl-ethoxy)-N-(1-methyl-1H-pyrazol-3-yl)-benzamide [Example 99]”, for which the EC50 amounted to 117 nM.
Under “3-[2-(3-acetylaminophenyl)ethyl]-5-(2-methoxy-(1S)-methyl-ethoxy)-N-(thiazol-2-yl)-benzamide [Example 118]” stands 208 nM; under “3-[2-(3-aminophenyl)ethyl]-5-(2-methoxy-(1S)-methyl-ethoxy)-N-(thiazol-2-yl)-benzamide [Example 91]”, 68.9 nM; under “3-[2-(3-benzoylaminophenyl)ethyl]-5-(2-methoxy-(1S)-methyl-ethoxy)-N-(thiazol-2-yl)-benzamide [Example 124]”, 281 nM.
Under “3-[2-(3-butyrylaminophenyl)ethyl]-5-(2-methoxy-(1S)-methyl-ethoxy)-N-(thiazol-2-yl)-benzamide [Example 119]” stands 370 nM; under “3-[2-(3-chlorophenyl)ethyl]-5-(2-methoxy-(1S)-methyl-ethoxy)-N-(1-methyl-1H-pyrazol-3-yl)-benzamide [Example 102]”, 264 nM; under “3-[2-(4-acetylaminophenyl)ethyl]-5-(2-methoxy-(1S)-methyl-ethoxy)-N-(thiazol-2-yl)-benzamide [Example 132]”, 354 nM.
On to “3-[2-(4-aminophenyl)ethyl]-5-(2-methoxy-(1S)-methyl-ethoxy)-N-(thiazol-2-yl)-benzamide [Example 92]”, for which the EC50 was found to be 113 nM.
Under “3-[2-(4-benzenesulfonylaminophenyl)ethyl]-5-(2-methoxy-(1S)-methyl-ethoxy)-N-(thiazol-2-yl)-benzamide [Example 144]” stands 411 nM; under “3-[2-(4-benzoylaminophenyl)ethyl]-5-(2-methoxy-(1S)-methyl-ethoxy)-N-(thiazol-2-yl)-benzamide [Example 138]”, 292 nM.
In turn, “3-[2-(4-butyrylaminophenyl)ethyl]-5-(2-methoxy-(1S)-methyl-ethoxy)-N-(thiazol-2-yl)-benzamide [Example 133]” yielded an EC50 of 322 nM.
With “3-[2-(4-fluorophenyl)ethyl]-5-(2-methoxy-(1S)-methyl-ethoxy)-N-(1-methyl-1H-pyrazol-3-yl)-benzamide [Example 98]”, the EC50 was determined as 216 nM.
Under “3-[2-(4-fluorophenyl)ethyl]-5-(2-methoxy-(1S)-methyl-ethoxy)-N-(pyrazin-2-yl)-benz amide [Example 108]” stands 465 nM.
The figure for “3-[2-(4-methoxyphenyl)ethyl]-5-(2-methoxy-(1S)-methyl-ethoxy)-N-(1-methyl-1H-pyrazol-3-yl)-benzamide [Example 100]” is 314 nM.
In the case of “3-[trans-2-(2,3,5-trifluorophenyl)vinyl]-5-(2-methoxy-(1S)-methyl-ethoxy)-N-(5-fluorothiazol-2-yl)-benzamide [Example 27]”, the EC50 was 86.6 nM.
Under “3-[trans-2-(2,3,5-trifluorophenyl)vinyl]-5-(2-methoxy-(1S)-methyl-ethoxy)-N-(thiazol-2-yl)-benzamide [Example 18]” stands 126 nM; under “3-[trans-2-(2,3-difluorophenyl)vinyl]-5-(2-methoxy-(1S)-methyl-ethoxy)-N-(1-methyl-1H-pyrazol-3-yl)-benzamide [Example 34]”, 132 nM; under “3-[trans-2-(2,3-difluorophenyl)vinyl]-5-(2-methoxy-(1S)-methyl-ethoxy)-N-(5-fluorothiazol-2-yl)-benzamide [Example 24]”, 47.3 nM.
The figure for “3-[trans-2-(2,3-difluorophenyl)vinyl]-5-(2-methoxy-(1S)-methyl-ethoxy)-N-(pyrazin-2-yl)-benzamide [Example 55]” is 346 nM; for “3-[trans-2-(2,3-difluorophenyl)vinyl]-5-(2-methoxy-(1S)-methyl-ethoxy)-N-(thiazol-2-yl)-benzamide [Example 9]” it is 27.5 nM.
As for “3-[trans-2-(2,3-dimethoxyphenyl)vinyl]-5-(2-methoxy-(1S)-methyl-ethoxy)-N-(5-fluorothiazol-2-yl)-benzamide [Example 28]”, the response was half-maximal at 118 nM (EC50).
“3-[trans-2-(2,3-dimethoxyphenyl)vinyl]-5-(2-methoxy-(1S)-methyl-ethoxy)-N-(thiazol-2-yl)-benzamide [Example 17]”: the concentration for a half-maximal effect (EC50) amounted to 50.4 nM.
The figure for “3-[trans-2-(2,4-difluorophenyl)vinyl]-5-(2-methoxy-(1S)-methyl-ethoxy)-N-(1-methyl-1H-pyrazol-3-yl)-benzamide [Example 35]” is 109 nM; for “3-[trans-2-(2,4-difluorophenyl)vinyl]-5-(2-methoxy-(1S)-methyl-ethoxy)-N-(5-fluorothiazol-2-yl)-benzamide [Example 25]” it is 70.2 nM.
